These results are taken from patent US20110237538A1, “TREATMENT OF LYSOSOMAL STORAGE DISORDERS AND OTHER PROTEOSTATIC DISEASES” (SUMMIT CORPORATION PLC, priority 2008, published 2011).

Molecules are shown by their SMILES. Where only a bound is given, the exact number is not on record here.

What is called inhibition is the change of the read-out against control, counted positive when it falls. A lower inhibition goes with a weak effect.

One experiment concerns the target T1, wild type (wt) lysosomal alpha-glucosidase (Homo sapiens, UniProt P10253).
T1 construct: The lysates were used as a source for wild type (wt) lysosomal alpha-glucosidase; endogenous in cells; host or cells: HL60 (ECACC No. 98070106) lysate
Kind of experiment: alpha-glucosidase activity assay in HL60 lysate (4MU-α-D-glc).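 Also: fluorometric rate of 4MU product release read at 360 nm excitation and 450 nm emission, reactions run at 37 °C in citric phosphate buffer.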 The format is biochemical. The note with it: at a concentration of 100 uM, 0.5 mM 4MU-α-D-glc, pH 4.5.
`OC[C@@H]1[C@@H](O)[C@H](O)[C@@H](O)CN1CCN1CCOCC1` [Compound 509, (2R,3R,4R,5S)-2-(hydroxymethyl)-1-(2-morpholinoethyl)piperidine-3,4,5-triol]: the inhibition at 100 µM is greater than 50%.
For the molecule `OCCCCN1C[C@H](O)[C@@H](O)[C@H](O)[C@H]1CO` [Compound 276, (2R,3R,4R,5S)-1-(4-hydroxybutyl)-2-(hydroxymethyl)piperidine-3,4,5-triol], the inhibition at 100 µM is greater than 50%.
Consider `O=C(O)CN1C[C@H](O)[C@@H](O)[C@H](O)[C@H]1CO` [Compound 214, 2-((2R,3R,4R,5S)-3,4,5-trihydroxy-2-(hydroxymethyl)piperidin-1-yl)acetic acid], for which the inhibition at 100 µM is greater than 50%.
Take `OC[C@@H]1NC[C@@H](O)[C@H](O)[C@H]1O` [Compound 221, (2S,3S,4S,5R)-2-(hydroxymethyl)piperidine-3,4,5-triol]: the inhibition at 100 µM is greater than 50%.
Molecule `OCC1OC(OC[C@H]2NC[C@H](O)[C@@H](O)[C@@H]2O)C(O)C(O)C1O` (stereo partly drawn) [Compound 78, (2R,3R,4R,5S)-2-((3,4,5-trihydroxy-6-(hydroxymethyl)tetrahydro-2H-pyran-2-yloxy)methyl)piperidine-3,4,5-triol] returned an inhibition at 100 µM greater than 50%.
In turn, `CCCCN1C[C@H](O)[C@H](O)[C@@H]1[C@@H](O)[C@H](O)[C@H](O)CO` [Compound 531, (1R,2S,3R)-1-((2R,3R,4S)-1butyl-3,4-dihydroxypyrrolidin-2-yl)butane-1,2,3,4-tetraol] returned an inhibition at 100 µM greater than 50%.
The molecule `CCCCN1C[C@H](O)[C@@H](O)[C@H](O)[C@H]1CO` [Compound 118, (2R,3R,4R,5S)-1-butyl-2-(hydroxymethyl)piperidine-3,4,5-triol] yielded an inhibition at 100 µM greater than 50%.
On the same count and under the same terms, for `CCCC(=O)O[C@H]1CN2CC[C@H](O)C2[C@@H](O)[C@@H]1O` (stereo partly drawn) [Compound 46, (1S,6S,7S,8R)-1,7,8-trihydroxyoctahydroindolizin-6-yl butyrate] the value was greater than 50%; for `OCC1OC(O[C@H]2CN[C@H](CO)[C@@H](O)[C@@H]2O)C(O)C(O)C1O` (stereo partly drawn) [Compound 121, 2-((3S,4S,5R,6R)-4,5-dihydroxy-6-(hydroxymethyl)piperidin-3-yloxy)-6-(hydroxymethyl)tetrahydro-2H-pyran-3,4,5-triol], greater than 50%.
On the same count and under the same terms, next, `OC[C@@H]1NC[C@](O)(CO)[C@H]1O` [Compound 202, (2S,3S,4S)-2,4-bis(hydroxymethyl)pyrrolidine-3,4-diol]: greater than 50%.
The molecule `OC[C@@H]1[C@@H](O)[C@H](O)[C@@H](O)CN1Cc1ccccc1` [Compound 510, (2R,3R,4R,5S)-1-benzyl-2-(hydroxymethyl)piperidine-3,4,5-triol] came in with an inhibition at 100 µM greater than 50%.
Take `OC[C@H]1NC[C@H](O)[C@@H](O)[C@@H]1O` [Compound 193, (2R,3R,4R,5S)-2-(hydroxymethyl)piperidine-3,4,5-triol]: the inhibition at 100 µM was greater than 50%.
For `CCCC[C@H]1N[C@H](CO)[C@@H](O)[C@@H](O)[C@@H]1O` [Compound 488, (2R,3R,4S,5R,6R)-2-butyl-6-(hydroxymethyl)piperidine-3,4,5-triol], the inhibition at 100 µM was greater than 50%.
On to `O=C1N[C@H](CO)[C@H](O)[C@@H](O)[C@@H]1O` [Compound 446, (3S,4R,5S,6R)-3,4,5-trihydroxy-6-(hydroxymethyl)piperidin-2-one], for which the inhibition at 100 µM is greater than 50%.
Still for that read-out and setting: for `C[C@@]1(CO)NC[C@H](O)[C@H]1O` [Compound 501, (2S,3S,4S)-2-(hydroxymethyl)-2-methylpyrrolidine-3,4-diol] the value was greater than 50%; for `OC[C@H]1[C@H](O)[C@@H](O)CN1Cc1ccccc1` [Compound 500, (2S,3S,4S)-1-benzyl-2-(hydroxymethyl)pyrrolidine-3,4-diol], greater than 50%.
Molecule `C[C@@H]1CC[C@@H]2[C@H](O)[C@H](O)[C@@H](CO)N12` [Compound 150, (1S,2R,3R,5R,7aR)-3-(hydroxymethyl)-5-methylhexahydro-1H-pyrrolizine-1,2-diol] registered an inhibition at 100 µM greater than 50%.
Regarding `C[C@H]1N[C@H](CO)[C@@H](O)[C@H](O)[C@H]1O` [Compound 51, (2R,3R,4R,5S,6R)-2-(hydroxymethyl)-6-methylpiperidine-3,4,5-triol], the inhibition at 100 µM is greater than 50%.
Molecule `OC[C@@H]1N[C@@H](CO)[C@H](O)[C@H]1O` [Compound 729, (2S,3S,4S,5S)-2,5-bis(hydroxymethyl)pyrrolidine-3,4-diol] came in with an inhibition at 100 µM greater than 50%.
Molecule `CCCCN1CCC[C@@H](CO)C1` [Compound 741, (R)-(1-butylpiperidin-3-yl)methanol] yielded an inhibition at 100 µM greater than 50%.
`C[C@@H]1N[C@@H](CO)[C@H](O)[C@H]1O` [Compound 300, (2S,3S,4S,5S)-2-(hydroxymethyl)-5-methylpyrrolidine-3,4-diol] showed an inhibition at 100 µM greater than 50%.
`CN1[C@H](CO)[C@@H](O)[C@H](O)[C@H]1CO` [Compound 515, (2R,3R,4R,5R)-2,5-bis(hydroxymethyl)-1-methylpyrrolidine-3,4-diol]: the inhibition at 100 µM was greater than 50%.
Molecule `CC[C@@H]1N[C@@H](CO)[C@H](O)[C@H]1O` [Compound 732, (2S,3S,4S,5S)-2-ethyl-5-(hydroxymethyl)pyrrolidine-3,4-diol] registered an inhibition at 100 µM greater than 50%.
On to `OCC1OC(O[C@H]2CN3C[C@H](O)[C@@H](O)[C@H](O)[C@H]3[C@H]2O)C(O)C(O)C1O` (stereo partly drawn) [Compound 41, (1R,2S,6S,7R,8R,8aS)-2-(3,4,5-trihydroxy-6-(hydroxymethyl)tetrahydro-2H-pyran-2-yloxy)octahydroindolizine-1,6,7,8-tetraol], for which the inhibition at 100 µM is greater than 50%.
With `OC[C@@H]1[C@@H](O)[C@H](O)[C@H]2[C@H](O)[C@@H](O)CN21` [Compound 137, (1R,2R,3R,6S,7S,7aR)-3-(hydroxymethyl)hexahydro-1H-pyrrolizine-1,2,6,7-tetraol], the inhibition at 100 µM was greater than 50%.
Take `COCCOCCN1C[C@H](O)[C@@H](O)[C@H](O)[C@H]1CO` [Compound 725, (2R,3R,4R,5S)-2-(hydroxymethyl)-1-(2-(2-methoxyethoxy)ethyl)piperidine-3,4,5-triol]: the inhibition at 100 µM is greater than 50%.
Still for that read-out and setting: for `O[C@H]1[C@H](O)[C@@H](O)CN2C[C@H](O)[C@@H](O)[C@H]12` [Compound 352, (1S,2S,6S,7R,8R,8aR)-octahydroindolizine-1,2,6,7,8-pentaol] the value was greater than 50%; for `CC[C@@H]1N[C@@H](CO)[C@H](O)[C@@H](O)[C@@H]1O` [Compound 23, (2S,3R,4S,5S,6S)-2-ethyl-6-(hydroxymethyl)piperidine-3,4,5-triol], greater than 50%.
On the same count and under the same terms, next, `OC[C@@H](O)[C@@H]1NC[C@](O)(CO)[C@H]1O` [Compound 179, (2S,3S,4S)-2-((S)-1,2-dihydroxyethyl)-4-(hydroxymethyl)pyrrolidine-3,4-diol]: greater than 50%.
On the same count and under the same terms, next, `OC[C@@H]1[C@@H](O)[C@H](O)[C@@H](CO)N1Cc1ccc(-c2ccccc2)cc1` [Compound 558, (2R,3R,4R,5R)-1-(biphenyl-4-ylmethyl)-2,5-bis(hydroxymethyl)pyrrolidine-3,4-diol]: greater than 50%.
For `OCC1OC(O[C@H]2[C@H](O)[C@@H](CO)N[C@@H]2CO)C(O)C(O)C1O` (stereo partly drawn) [Compound 79, 2-((2R,3R,4R,5R)-4-hydroxy-2,5-bis(hydroxymethyl)pyrrolidin-3-yloxy)-6-(hydroxymethyl)tetrahydro-2H-pyran-3,4,5-triol], the inhibition at 100 µM was greater than 50%.
In the case of `CCCC[C@@H]1N[C@@H](CO)[C@H](O)[C@H]1O` [Compound 728, (2S,3S,4S,5S)-2-butyl-5-(hydroxymethyl)pyrrolidine-3,4-diol], the inhibition at 100 µM is greater than 50%.
In turn, `C[N+]1(C)C[C@@H](O)[C@H](O)[C@H]1C(=O)[O-]` [Compound 80, (2S,3R,4R)-3,4-dihydroxy-1,1-dimethylpyrrolidinium-2-carboxylate] showed an inhibition at 100 µM greater than 50%.
The molecule `C[C@H]1NC[C@H](O)[C@@H](O)[C@@H]1O` [Compound 388, (2R,3R,4R,5S)-2-methylpiperidine-3,4,5-triol] showed an inhibition at 100 µM greater than 50%.

The target of the next experiment is T2, wild type (wt) beta-glucocerebrosidase (Homo sapiens, UniProt P04062).
T2 construct: The lysates were used as a source for wild type (wt) beta-glucocerebrosidase; endogenous in cells; host or cells: HL60 (ECACC No. 98070106) lysate
T2 sequence (P04062 40-536): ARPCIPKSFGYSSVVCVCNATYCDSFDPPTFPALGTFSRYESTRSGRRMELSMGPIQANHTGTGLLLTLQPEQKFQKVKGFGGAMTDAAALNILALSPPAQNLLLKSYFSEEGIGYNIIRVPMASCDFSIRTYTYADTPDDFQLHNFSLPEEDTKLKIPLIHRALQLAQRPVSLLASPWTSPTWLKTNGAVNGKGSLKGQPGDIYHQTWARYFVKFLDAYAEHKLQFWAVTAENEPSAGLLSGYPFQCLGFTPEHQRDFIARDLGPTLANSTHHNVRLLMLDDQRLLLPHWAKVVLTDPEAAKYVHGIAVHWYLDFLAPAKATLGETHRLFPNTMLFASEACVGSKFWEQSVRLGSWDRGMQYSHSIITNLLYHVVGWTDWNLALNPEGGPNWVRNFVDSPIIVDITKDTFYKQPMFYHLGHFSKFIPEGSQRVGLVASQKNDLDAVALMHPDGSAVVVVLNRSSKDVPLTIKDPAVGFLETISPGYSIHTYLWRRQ
Description: beta-glucocerebrosidase activity assay in HL60 lysate (4MU-β-D-glc).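 Also: fluorometric read-out of 4MU liberated from the substrate (ex 360 nm, em 450 nm) after 37 °C incubation, reaction stopped with sodium carbonate.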 The format is biochemical. The note with it: at a concentration of 100 μM, 0.5 mM 4MU-β-D-glc.
Regarding `OCCN1C[C@@H](CO)[C@H](O)[C@@H](O)C1` [Compound 640, (3S,4S,5S)-1-(2-hydroxyethyl)-5-(hydroxymethyl)piperidine-3,4-diol], the inhibition at 100 µM was greater than 50%.
For `OCCCCCCCCCN1[C@H](CO)[C@@H](O)[C@H](O)[C@H]1CO` [Compound 557, (2R,3R,4R,5R)-2,5-bis(hydroxymethyl)-1-(9-hydroxynonyl)pyrrolidine-3,4-diol], the inhibition at 100 µM was greater than 50%.
The molecule `OC[C@H]1[C@@H](O)[C@H](O)[C@H]2[C@H](O)[C@@H](O)CN21` [Compound 129, (1R,2R,3S,6S,7S,7aR)-3-(hydroxymethyl)hexahydro-1H-pyrrolizine-1,2,6,7-tetraol] gave an inhibition at 100 µM greater than 50%.
As for `CCCCCCCCCN1C[C@@H](O)[C@H](O)[C@H](O)[C@@H](O)C1` [Compound 736, (3R,4S,5R,6S)-1-nonylazepane-3,4,5,6-tetraol], the inhibition at 100 µM is greater than 50%.
